According to patent publication US12581252B2, “Substituted pyrrolo[3,4-b]pyridines as PI3K-α inhibitors” (Relay Therapeutics, Inc., priority 2020, dated 2026):

These compounds were tested against H1047R PIK3CA enzyme (Homo sapiens, UniProt P42336, H1047R) (assay: ADP-Glo Biochemical PIK3CA Kinase Assay).
H1047R PIK3CA enzyme, sequence (P42336 whole entry H1047R): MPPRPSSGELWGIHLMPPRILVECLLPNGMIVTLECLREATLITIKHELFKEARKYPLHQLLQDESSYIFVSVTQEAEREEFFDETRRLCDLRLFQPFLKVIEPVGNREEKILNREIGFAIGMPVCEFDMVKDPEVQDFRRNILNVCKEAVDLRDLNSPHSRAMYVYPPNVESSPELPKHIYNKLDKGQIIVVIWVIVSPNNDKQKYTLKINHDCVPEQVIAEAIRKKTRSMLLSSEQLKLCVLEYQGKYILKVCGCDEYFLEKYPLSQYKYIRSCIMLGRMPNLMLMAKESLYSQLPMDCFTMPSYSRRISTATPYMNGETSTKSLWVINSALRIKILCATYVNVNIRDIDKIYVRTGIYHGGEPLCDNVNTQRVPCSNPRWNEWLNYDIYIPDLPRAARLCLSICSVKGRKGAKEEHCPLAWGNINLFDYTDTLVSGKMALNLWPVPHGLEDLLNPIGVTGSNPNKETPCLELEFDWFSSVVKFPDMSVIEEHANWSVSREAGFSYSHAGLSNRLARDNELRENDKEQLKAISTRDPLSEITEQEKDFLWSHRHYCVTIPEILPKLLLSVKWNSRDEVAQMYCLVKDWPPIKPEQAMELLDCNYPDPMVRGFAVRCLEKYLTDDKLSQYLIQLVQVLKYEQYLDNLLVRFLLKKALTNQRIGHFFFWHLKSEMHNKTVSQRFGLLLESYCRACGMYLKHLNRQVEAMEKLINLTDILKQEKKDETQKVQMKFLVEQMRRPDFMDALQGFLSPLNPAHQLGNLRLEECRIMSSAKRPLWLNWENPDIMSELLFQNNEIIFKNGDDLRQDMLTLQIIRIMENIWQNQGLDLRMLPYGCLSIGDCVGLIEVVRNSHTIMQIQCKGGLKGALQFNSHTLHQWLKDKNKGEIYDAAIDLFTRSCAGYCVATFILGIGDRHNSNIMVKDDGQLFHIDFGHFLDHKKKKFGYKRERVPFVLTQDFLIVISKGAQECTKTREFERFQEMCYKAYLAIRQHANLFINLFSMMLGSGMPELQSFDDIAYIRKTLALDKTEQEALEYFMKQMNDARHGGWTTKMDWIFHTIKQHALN
H1047R PIK3CA enzyme, sequence (P27986 whole entry partner): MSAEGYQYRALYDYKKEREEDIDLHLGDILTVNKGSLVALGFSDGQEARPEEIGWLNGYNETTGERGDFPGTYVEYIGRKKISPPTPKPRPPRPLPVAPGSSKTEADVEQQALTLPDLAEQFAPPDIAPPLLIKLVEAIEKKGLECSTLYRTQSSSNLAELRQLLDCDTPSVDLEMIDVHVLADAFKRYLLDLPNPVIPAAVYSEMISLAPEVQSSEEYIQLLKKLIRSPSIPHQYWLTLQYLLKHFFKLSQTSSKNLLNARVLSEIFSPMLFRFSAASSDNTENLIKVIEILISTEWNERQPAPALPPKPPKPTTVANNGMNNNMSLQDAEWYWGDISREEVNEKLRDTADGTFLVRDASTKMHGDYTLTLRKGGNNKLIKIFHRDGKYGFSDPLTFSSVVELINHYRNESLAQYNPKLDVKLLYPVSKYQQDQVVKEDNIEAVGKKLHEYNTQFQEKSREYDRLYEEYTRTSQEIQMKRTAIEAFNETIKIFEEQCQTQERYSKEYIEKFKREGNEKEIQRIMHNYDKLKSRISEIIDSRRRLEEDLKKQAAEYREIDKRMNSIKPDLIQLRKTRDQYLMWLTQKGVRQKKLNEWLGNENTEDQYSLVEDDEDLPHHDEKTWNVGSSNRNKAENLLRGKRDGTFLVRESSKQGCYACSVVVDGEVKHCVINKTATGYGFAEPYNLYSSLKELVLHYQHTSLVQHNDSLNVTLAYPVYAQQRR

| IC50 [µM] | SMILES |
| --- | --- |
| ≤ 0.1 | O=C(Nc1cc(CC(O)C(F)(F)F)cc2c1C(c1cc(F)ccc1Cl)NC2=O)c1cc(F)cc(C(F)(F)F)c1 (stereo not shown) [Compound I-1200] |
| ≤ 0.1 | O=C(O)c1cc(NC(=O)c2cc(F)cc(C(F)(F)F)c2)c2c(c1)C(=O)NC2c1cc(F)ccc1Cl (stereo not shown) [Compound I-494] |
| 1 to 10 | CCC1CCCN1C(=O)Nc1cccc2c1C(c1cc(F)ccc1Cl)NC2=O (mixture of isomers) [Compound I-2395] |
| 1 to 10 | COc1ccc([C@H](C)N2C(=O)c3cc(Br)cc(N)c3[C@H]2c2cc(F)ccc2Cl)cc1 (racemic) [Compound I-862] |
| 0.5 to 1 | Cc1ccccc1-n1[nH]c(=O)c2cccc(NC(=O)c3csc4ccccc34)c21 [Compound I-68] |
| 10 to 100 | O=C1N[C@H](c2cc(F)ccc2Cl)c2c(NC(=O)N3C[C@@](O)(C(F)F)c4ccccc43)cccc21 (single isomer, unassigned) [Compound I-2484] |
| 1 to 10 | N#CCc1ccc(NC(=O)N2C[C@@](O)(C(F)(F)F)c3cc(F)ccc32)c2c1C(=O)N[C@@H]2c1cc(F)ccc1Cl (single isomer, unassigned) [Compound I-2617] |
| 1 to 10 | Cc1ccccc1C1NC(=O)c2cccc(-c3cc4c(F)cc(F)cc4[nH]3)c21 (stereo not shown) [Compound I-479] |
| 10 to 100 | O=C(Nc1cccc2c1[C@@H](C13C[C@H]4C[C@@H](C1)C[C@@H](C3)C4)NC2=O)c1cc(F)cc(C(F)(F)F)c1 (racemic) [Compound I-2074] |
| 1 to 10 | O=C1NC(c2cc(F)ccc2Cl)c2c(Nc3ccc4ccccc4c3)cc(Br)cc21 (stereo not shown) [Compound I-1725] |
| ≤ 0.1 | CC(C)(O)c1cc(NC(=O)c2cc(F)cc(Cl)c2)c2c(c1)C(=O)NC2c1cc(F)ccc1Cl (stereo not shown) [Compound I-214] |
| 10 to 100 | O=C1NC(c2cc(F)ccc2Cl)c2c1cccc2N1Cc2ccccc2CC1=O (stereo not shown) [Compound I-1746] |
| 1 to 10 | O=C1NC(c2cc(F)ccc2Cl)c2c(NC(=O)N3CCCC34CC4)cccc21 (stereo not shown) [Compound I-2467] |
| ≤ 0.1 | COc1ccc(-c2cc(NC(=O)c3cc(F)cc(C(F)(F)F)c3)c3c(c2)C(=O)NC3c2cc(F)ccc2Cl)cn1 (stereo not shown) [Compound I-705] |
| 10 to 100 | O=C1N[C@H](c2cc(F)ccc2Cl)c2c(NC(=O)[C@H]3CCC[C@@H](OC(F)(F)F)C3)cccc21 (single isomer, unassigned) [Compound I-2217] |
| 10 to 100 | Cc1ccccc1C1NC(=O)c2cccc(NC(=O)c3cccc4c3CCCO4)c21 (stereo not shown) [Compound I-11] |
| 1 to 10 | O=C(Nc1cccc2c1[C@@H](c1cc(F)ccc1C(F)F)NC2=O)c1cc(F)cc(C(F)(F)F)c1 [Compound I-169] |
| 1 to 10 | Cc1ccccc1C1NCc2cccc(NC(=O)c3nsc4ccccc34)c21 (stereo not shown) [Compound I-201] |
| 1 to 10 | C[C@@H](C#N)Cn1cc(-c2cc(NC(=O)N3C[C@@H](O)c4cc(F)ccc43)c3c(c2)C(=O)N[C@@H]3c2cc(F)ccc2Cl)cn1 (single isomer, unassigned) [Compound I-2504] |
| ≤ 0.1 | Cc1ncc(-c2cc(NC(=O)c3cc(F)cc(C(F)(F)F)c3)c3c(n2)C(=O)NC3c2cc(F)ccc2Cl)s1 (stereo not shown) [Compound I-546] |
| ≤ 0.1 | O=C(Nc1cc(-c2ccnc(C(F)F)c2)cc2c1[C@H](c1cc(F)ccc1Cl)NC2=O)c1cc(F)cc(C(F)(F)F)c1 [Compound I-2003] |
| 1 to 10 | N#Cc1cnc2cnc(-c3cc(NC(=O)c4cc(F)cc(C(F)(F)F)c4)c4c(c3)C(=O)N[C@@H]4c3cc(F)ccc3Cl)cn12 [Compound I-1922] |
| ≤ 0.1 | O=C(Nc1cc(-c2cccnc2C(F)(F)F)cc2c1C(c1cc(F)ccc1Cl)NC2=O)c1cc(F)cc(C(F)(F)F)c1 (stereo not shown) [Compound I-892] |

| SMILES | IC50 [µM] |
| --- | --- |
| O=C(Nc1cc(OS(=O)(=O)F)cc2c1C(c1cc(F)ccc1Cl)NC2=O)c1cc(F)cc(C(F)(F)F)c1 (stereo not shown) [Compound I-483] | ≤ 0.1 |
| O=C(Nc1cccc2c1C(C1CCCCC1O)NC2=O)c1cc(F)cc(C(F)(F)F)c1 (stereo not shown) [Compound I-2060] | 10 to 100 |
